In paper PMC5609566, “Elucidation of antimicrobial activity and mechanism of action by N-substituted carbazole derivatives” (Bioorganic & Medicinal Chemistry Letters, 2017):
Converted amounts (≈) assume the structure as drawn.

Key:
[1] = molecular target: T1, S. cerevisiae H^+-ATPase (Saccharomyces cerevisiae, UniProt P05030); test: Colorimetric ATPase assay (ATP hydrolysis), S. cerevisiae plasma membranes; assay type: biochemical; details: for IC50: pH 7, n = 3
T1 construct: transformed with the full-length cDNA of the S. cerevisiae plasma membrane H^+-ATPase isoform PMA1; made in house; host or cells: S. cerevisiae RS72
Text: (§1) To investigate the H^+-ATPase inhibitory effect of the compounds we isolated plasma membranes containing H^+-ATPase from S. cerevisiae and C. albicans cells.[15] Plasma membranes isolated from pig kidney as well as endoplasmic reticulum membranes from rabbit hind leg muscle were used to counter-screen compounds for activity against mammalian Na^+,K^+-ATPase and Ca^2+-ATPase, respectively. Prior to their use, fungal plasma membrane batches were validated by determining the maximum ATP hydrolysis activity, the pH optimum of the ATPase activity, and the sensitivity to inhibition by orthovanadate. ATPase activity was determined by a colorimetric assay that measures the amount of inorganic phosphate liberated over time, as described in Kjellerup et al., 2017.[15] Table 2, Table 3, Table 4 list the IC50 values obtained by measuring the concentration dependence of the ATPase activity for the fifteen carbazole compounds with each of the four membrane preparations.
(§2) Pma1-containing plasma membranes were prepared from S. cerevisiae RS72 yeast cells that had been transformed with the full-length cDNA of the S. cerevisiae plasma membrane H^+-ATPase isoform PMA1 under control of the PMA1 promoter, using the same procedure as described in Kongstad et al., 2014^1. For the preparation of C. albicans membranes, a 100 ml overnight culture grown in YPD (10 g/L yeast extract (BD, Sparks, MD), 20 g/L Bacto peptone (BD), 20 g/L D-(+)-glucose) was transferred to 1 L YPD and grown for a further 7 h at RT with agitation (150 rpm), followed by cell harvesting and subsequent membrane preparation using the same procedure as described in Kongstad et al., 2014^1. […] Rabbit sarcoplasmic reticulum membranes containing Sarco/Endoplasmic Reticulum Ca^2+ ATPase (SERCA) were kindly provided by Dr. Claus E. Olesen and Dr. Jesper V. Møller, Aarhus University and prepared as described in Andersen et al., 1985^2. Pig kidney Na^+,K^+-ATPase was kindly provided by Dr. Natalya Fedosova, Aarhus University and prepared as described in Klodos et al., 2002^3.
(§3) The compound libraries were purchased from Enamine Ltd, Ukraine and Chembridge Corp, USA. ATPase activity was determined by measuring the amount of liberated phosphate from ATP hydrolysis. […] Reactions were initiated by the addition of Na-ATP to a final concentration of 2.5 mM (Pma1 and Na^+,K^+-ATPase) or 5 mM (SERCA), followed by 30 minutes incubation at 30 °C. The amount of liberated phosphate was determined colorimetrically after addition of STOP solution (mixture of L-ascorbic acid, ammonium heptamolybdate tetrahydrate, and HCl to give final concentrations of 65 mM, 2.2 mM, and 189 mM, respectively) with 5 minutes incubation at room temperature (RT) followed by addition of arsenite solution (mixture of NaAsO2, sodium citrate dihydrate, and acetic acid to give final concentrations of 3.1 mM, 28 mM, and 141 mM, respectively). Absorption was measured at 860 nm after an additional 30 minutes incubation at RT.

[2] = molecular target: T2, C. albicans H^+-ATPase (Candida albicans, UniProt P28877); test: Colorimetric ATPase assay (ATP hydrolysis), C. albicans membranes; assay type: biochemical; details: pH 7, n = 3
T2 construct: endogenous in cells; host or cells: C. albicans culture grown in YPD; microsomal membrane preparation
Text: as §1, §2, §3

[3] = tested on: Saccharomyces cerevisiae ATCC 9763; test: Fungal growth inhibition MIC (MFC); assay type: cell-based; details: ATCC9763; for MIC: Saccharomyces cerevisiae ATCC 9763, RPMI-1640; for MFC: Saccharomyces cerevisiae ATCC 9763, value in brackets
Text: (§4) We subsequently assessed the carbazole series for antifungal activity, as described in Kjellerup et al., 2017.[15] Table 2, Table 3, Table 4, Table 5 list the minimum inhibitory concentrations (MIC) and the minimum fungicidal concentrations (MFC) of the fifteen compounds tested against the yeasts Saccharomyces cerevisiae, Candida albicans, C. krusei, and two isolates of C. glabrata (a wild-type strain ATCC 90030 and a clinical azole-resistant isolate Cg003 with increased efflux pump expression[19]), and the molds Aspergillus fumigatus and A. flavus. MIC was defined as the lowest concentration inhibiting visual growth of the microorganism in RPMI-1640 media. […] However, in several cases antifungal activity against molds was minimal, Table 5.
(§5) Compound hits from the library screening were evaluated against baker yeast S. cerevisiae and C. albicans (ATCC 90028). The minimum inhibitory concentration (MIC) was defined as the lowest concentration inhibiting visual growth of the microorganism and this was determined in triplicate. Standard errors were typically less than 5%. MICs for synthesized compounds were determined on the following fungal isolates: Saccharomyces cerevisiae (ATCC 9763), Candida albicans (SC5314), Candida krusei (ATCC 6258), Candida glabrata (ATCC 90030), Aspergillus flavus (ATCC MYA-1005) and Aspergillus fumigatus (ATCC 13073), which were purchased from American Type Culture Collection, and C. glabrata strain Cg003, which was kindly provided by Julius Subik, Comenius University in Bratislava, Slovak Republic. Cg003 is a clinical isolate, characterized to be resistant to fluconazole and itraconazole due to overexpression of the multidrug resistance efflux pumps Cdr1p and Cdr2p^5. The fungal growth assay was performed as described in Kjellerup et al., 2017^6.

[4] = tested on: Aspergillus flavus ATCC MYA-1005; test: Mold growth inhibition; assay type: cell-based; details: Aspergillus flavus ATCC MYA-1005, n=3; read-out: Fungal Growth Inhibition MIC
Text: as §4, §5

[5] = tested on: Aspergillus fumigatus ATCC 13073; test: Mold growth inhibition; assay type: cell-based; details: ATCC13073; Aspergillus fumigatus ATCC 13073, n=3; read-out: Fungal Growth Inhibition MIC
Text: as §4, §5

[6] = tested on: Escherichia coli ATCC 25922; test: Bacterial growth inhibition assay; assay type: cell-based; details: ATCC25922; Escherichia coli ATCC 25922, n=3
Text: (§6) To further support the notion that the carbazole H^+-ATPase inhibitors were specific inhibitors of fungal growth, we tested the effect of all fifteen compounds on the growth of two bacterial species; the gram-positive Staphylococcus aureus and the gram-negative Escherichia coli. […] Compound 16 and 17 were interesting as they were potent inhibitors of the ATP hydrolysis in the enzymatic assay and potent H^+-ATPase inhibitors in whole fungal cell assay (iATP and extracellular acidification).
(§7) The bacterial strains used in this study were purchased from DSMZ, Germany. Bacteria cells were grown in Mueller-Hinton broth (MHB) to mid-exponential phase and freeze stocks were prepared at 1-2 × 10^8 CFU/mL in MHB and 20% glycerol and stored at -20 °C. These stocks were used to inoculate bacterial growth assays at a final concentration of 5 × 10^5 CFU/mL in MHB together with 1.5 % DMSO or compound in a 96-well plate and incubated for 16-29 h at 35 °C, whereafter growth was determined by reading at OD600. Kanamycin and ampicillin were used as positive control compounds. Experiments were performed at least twice and standard errors were typically less than 5 %.

[7] = tested on: Staphylococcus aureus ATCC 29213; test: Bacterial growth inhibition assay; assay type: cell-based; details: ATCC29213; Staphylococcus aureus ATCC 29213, n=3
Text: as §6, §7

T2 sequence (P28877 whole entry): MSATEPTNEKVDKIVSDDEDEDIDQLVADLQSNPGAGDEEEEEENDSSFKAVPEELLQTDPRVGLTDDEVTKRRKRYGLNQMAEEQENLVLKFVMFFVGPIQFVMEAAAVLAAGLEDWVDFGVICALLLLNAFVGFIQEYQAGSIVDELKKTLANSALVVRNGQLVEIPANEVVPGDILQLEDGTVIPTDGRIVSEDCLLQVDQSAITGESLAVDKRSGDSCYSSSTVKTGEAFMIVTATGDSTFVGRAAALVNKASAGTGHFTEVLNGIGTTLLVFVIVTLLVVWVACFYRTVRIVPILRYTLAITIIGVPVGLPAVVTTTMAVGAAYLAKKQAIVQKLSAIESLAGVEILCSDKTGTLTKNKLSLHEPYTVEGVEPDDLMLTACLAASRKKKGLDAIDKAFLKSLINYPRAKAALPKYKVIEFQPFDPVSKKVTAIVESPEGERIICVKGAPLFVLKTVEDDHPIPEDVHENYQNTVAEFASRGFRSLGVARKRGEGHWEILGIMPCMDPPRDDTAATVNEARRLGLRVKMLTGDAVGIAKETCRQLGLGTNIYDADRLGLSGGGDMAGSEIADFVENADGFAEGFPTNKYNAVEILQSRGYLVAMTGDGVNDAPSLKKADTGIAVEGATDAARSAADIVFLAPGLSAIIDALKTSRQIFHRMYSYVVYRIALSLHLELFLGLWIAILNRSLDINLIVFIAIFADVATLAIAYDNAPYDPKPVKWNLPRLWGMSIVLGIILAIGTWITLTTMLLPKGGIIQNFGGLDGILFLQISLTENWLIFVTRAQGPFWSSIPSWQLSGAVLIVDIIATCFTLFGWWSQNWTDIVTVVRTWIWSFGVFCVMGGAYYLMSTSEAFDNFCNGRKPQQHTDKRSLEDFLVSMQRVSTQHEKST
T1 sequence (P05030 whole entry, canonical isoform): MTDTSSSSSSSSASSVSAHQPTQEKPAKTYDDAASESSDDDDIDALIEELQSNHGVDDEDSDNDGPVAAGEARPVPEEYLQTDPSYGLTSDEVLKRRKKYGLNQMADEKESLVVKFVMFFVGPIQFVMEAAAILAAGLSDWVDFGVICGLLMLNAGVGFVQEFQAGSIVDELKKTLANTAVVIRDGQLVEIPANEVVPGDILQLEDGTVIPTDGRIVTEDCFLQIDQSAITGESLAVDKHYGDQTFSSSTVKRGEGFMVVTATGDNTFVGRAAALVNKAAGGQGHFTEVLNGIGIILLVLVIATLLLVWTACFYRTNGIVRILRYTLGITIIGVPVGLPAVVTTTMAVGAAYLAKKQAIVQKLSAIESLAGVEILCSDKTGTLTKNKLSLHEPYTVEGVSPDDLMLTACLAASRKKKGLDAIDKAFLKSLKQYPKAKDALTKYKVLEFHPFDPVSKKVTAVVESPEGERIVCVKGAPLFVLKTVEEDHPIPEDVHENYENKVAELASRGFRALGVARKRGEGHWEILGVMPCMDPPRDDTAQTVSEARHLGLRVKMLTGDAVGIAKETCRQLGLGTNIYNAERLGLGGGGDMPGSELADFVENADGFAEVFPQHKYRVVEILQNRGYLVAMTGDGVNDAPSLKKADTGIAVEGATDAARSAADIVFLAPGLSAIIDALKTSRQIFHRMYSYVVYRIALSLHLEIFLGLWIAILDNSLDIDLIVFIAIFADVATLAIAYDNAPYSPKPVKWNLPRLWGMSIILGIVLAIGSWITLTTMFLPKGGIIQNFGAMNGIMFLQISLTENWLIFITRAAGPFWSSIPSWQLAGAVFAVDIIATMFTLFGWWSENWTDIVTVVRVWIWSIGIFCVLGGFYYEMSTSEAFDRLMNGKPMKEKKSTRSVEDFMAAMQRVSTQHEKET

| Compound | IC50 [1] | IC50 [2] | MIC [3] | MFC [3] | MIC [4] | MIC [5] | MIC [6] | MIC [7] | fold more potent H^+-ATPase inhibition than the parent compounds 1–4 ([1]; IC50 ratio) |
| --- | --- | --- | --- | --- | --- | --- | --- | --- | --- |
| OC(Cn1ccnc1)Cn1c2ccc(Cl)cc2c2cc(Cl)ccc21 (stereo not drawn) [Compound 5, 1-(3,6-dichloro-9H-carbazol-9-yl)-3-(1H-imidazol-1-yl)propan-2-ol] | 23 ± 12.3 µM | 19.3 ± 2.6 µM | 24 µM (≈ 8.65 µg/mL) | 75 µM (≈ 27 µg/mL) | > 75 µM | > 75 µM | > 75 µM | 7.5 µM (≈ 2.7 µg/mL) | – |
| OC(Cn1cncn1)Cn1c2ccc(Cl)cc2c2cc(Cl)ccc21 (stereo not drawn) [Compound 6, 1-(3,6-dichloro-9H-carbazol-9-yl)-3-(1H-1,2,4-triazol-1-yl)propan-2-ol] | 7.4 ± 1.6 µM | 4 ± 1.2 µM | 75 µM (≈ 27.1 µg/mL) | > 75 µM | > 75 µM | > 75 µM | > 75 µM | 41 µM (≈ 14.8 µg/mL) | – |
| OC(CN1CCOCC1)Cn1c2ccc(Cl)cc2c2cc(Cl)ccc21 (stereo not drawn) [Compound 7, 1-(3,6-dichloro-9H-carbazol-9-yl)-3-morpholinopropan-2-ol] | 6.9 ± 1.3 µM | 2.6 ± 0.4 µM | 24 µM (≈ 9.1 µg/mL) | 24 µM (≈ 9.1 µg/mL) | > 75 µM | > 75 µM | > 75 µM | 41 µM (≈ 15.6 µg/mL) | – |
| CN1CCN(CC(O)Cn2c3ccc(Cl)cc3c3cc(Cl)ccc32)CC1 (stereo not drawn) [Compound 8, 1-(3,6-dichloro-9H-carbazol-9-yl)-3-(4-methylpiperazin-1-yl)propan-2-ol] | 52.7 ± 10.6 µM | 26.4 ± 2.5 µM | 7.5 µM (≈ 2.94 µg/mL) | 7.5 µM (≈ 2.94 µg/mL) | > 75 µM | 75 µM (≈ 29.4 µg/mL) | 75 µM (≈ 29.4 µg/mL) | 64 µM (≈ 25.1 µg/mL) | – |
| O=C(O)C1CCN(CC(O)Cn2c3ccc(Cl)cc3c3cc(Cl)ccc32)CC1 (stereo not drawn) [Compound 9, 1-(3-(3,6-dichloro-9H-carbazol-9-yl)-2-hydroxypropyl)piperidine-4-carboxylic acid] | 107 ± 11.8 µM | 105 ± 13.9 µM | > 75 µM | > 75 µM | > 75 µM | > 75 µM | > 75 µM | 75 µM (≈ 31.6 µg/mL) | – |
| CCC(C)NCC(O)Cn1c2ccc(Cl)cc2c2cc(Cl)ccc21 (stereo not drawn) [Compound 10, 1-(sec-butylamino)-3-(3,6-dichloro-9H-carbazol-9-yl)propan-2-ol] | 2 ± 0.2 µM | 1.1 ± 0.2 µM | 0.4 µM (≈ 0.146 µg/mL) | 1.2 µM (≈ 0.438 µg/mL) | 12 µM (≈ 4.38 µg/mL) | 3.7 µM (≈ 1.35 µg/mL) | 20 µM (≈ 7.31 µg/mL) | 2.9 µM (≈ 1.06 µg/mL) | ca. 9 fold |
| COc1ccc2c(c1)c1cc(OC)ccc1n2CC(O)CN1CCN(C)CC1 (stereo not drawn) [Compound 11, 1-(3,6-dimethoxy-9H-carbazol-9-yl)-3-(4-methylpiperazin-1-yl)propan-2-ol] | > 167 µM | > 167 µM | > 75 µM | > 75 µM | > 75 µM | > 75 µM | > 75 µM | > 75 µM | – |
| CN1CCN(CC(O)Cn2c3ccc(C#N)cc3c3cc(C#N)ccc32)CC1 (stereo not drawn) [Compound 12, 9-(2-hydroxy-3-(4-methylpiperazin-1-yl)propyl)-9H-carbazole-3,6-dicarbonitrile] | > 167 µM | 144 ± 14.7 µM | > 75 µM | > 75 µM | > 75 µM | > 75 µM | > 75 µM | > 75 µM | – |
| CN1CCN(CC(O)Cn2c3ccc(O)cc3c3cc(O)ccc32)CC1 (stereo not drawn) [Compound 13, 9-(2-hydroxy-3-(4-methylpiperazin-1-yl)propyl)-9H-carbazole-3,6-diol] | > 167 µM | > 167 µM | > 75 µM | > 75 µM | > 75 µM | > 75 µM | > 75 µM | > 75 µM | – |
| CN(C)CCCn1c2ccc(Cl)cc2c2cc(Cl)ccc21 [Compound 14, 3-(3,6-dichloro-9H-carbazol-9-yl)-N,N-dimethyl-propan-1-amine] | 36.2 ± 3.1 µM | 23.3 ± 5.3 µM | 5.8 µM (≈ 1.86 µg/mL) | 16 µM (≈ 5.14 µg/mL) | > 75 µM | > 75 µM | 75 µM (≈ 24.1 µg/mL) | 7.5 µM (≈ 2.41 µg/mL) | – |
| CN(C)CCCCn1c2ccc(Cl)cc2c2cc(Cl)ccc21 [Compound 15] | 51.8 ± 0.5 µM | 31.1 ± 4.8 µM | 2.4 µM (≈ 0.805 µg/mL) | 5 µM (≈ 1.68 µg/mL) | 75 µM (≈ 25.1 µg/mL) | 24 µM (≈ 8.05 µg/mL) | 75 µM (≈ 25.1 µg/mL) | 24 µM (≈ 8.05 µg/mL) | – |
| CN1CCN(CCCn2c3ccc(Cl)cc3c3cc(Cl)ccc32)CC1 [Compound 16, 3,6-dichloro-9-(3-(4-methylpiperazin-1-yl)propyl)-9H-carbazole] | 20 ± 1 µM | 7.1 ± 0.5 µM | 2.4 µM (≈ 0.903 µg/mL) | 2.4 µM (≈ 0.903 µg/mL) | 24 µM (≈ 9.03 µg/mL) | 41 µM (≈ 15.4 µg/mL) | 75 µM (≈ 28.2 µg/mL) | 24 µM (≈ 9.03 µg/mL) | – |
| Clc1ccc2c(c1)c1cc(Cl)ccc1n2CCCN1CCOCC1 [Compound 18, 4-(3-(3,6-dichloro-9H-carbazol-9-yl)propyl)morpholine] | 11.1 ± 3.8 µM | 5.9 ± 1.7 µM | > 75 µM | > 75 µM | > 75 µM | > 75 µM | > 75 µM | > 75 µM | – |
